The values that follow come from ChEMBL document CHEMBL1201862, “PubChem BioAssay data set” (2004).

Holding throughout (assay): growth of human tumour cells (NCI), 48 h
The test system of assay [1] is OVCAR-5.
Assay [2] deals with TK-10.
The subject of assay [3] is LOX IMVI.
Assay [4] concerns A498.
Assay [5] deals with RPMI-8226.
Assay [6] concerns SF-268.
The subject of assay [7] is K562.
The subject of assay [8] is SW-620.
Assay [9] concerns U-251.
The subject of assay [10] is NCI-H226.
Assay [11] relates to Hs-578T.
Assay [12] has as its system UACC-257.
In assay [13] the test system is CAKI-1.
Assay [14] has as its system UACC-62.
The test system of assay [15] is RXF 393.
Assay [16] has as its system HL-60.
Assay [17] has as its system CCRF-CEM.
Assay [18] relates to SF-295.
For assay [19], the system named is SN12C.
The test system of assay [20] is HCC 2998.

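Where inhibition never reached the appropriate level, the endpoint shown equals the highest concentration tested. Otherwise, values were interpolated linearly from a five-concentration, 48-hour dose response in 96-well plates. GI50 = concentration required for 50% inhibition of growth.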 Activity calls are given as the source filed them. Cut-off read from the data, not from the text of the source: active = GI50 up to about 1.1 µM and inactive = higher.

As to `CC12CCC3c4ccc(O)cc4CCC3C1C/C(=N\O)C2O` (configuration not stated), the GI50 in assay [1] is > 100 µM (inactive); in [2], 45.4 µM (inactive); in assay [3], > 100 µM (inactive); in assay [4], > 100 µM (inactive); in assay [5] it was 85.1 µM (inactive); in assay [6], > 100 µM (inactive). Further, the GI50 in [7] is > 100 µM (inactive); in assay [8], > 100 µM (inactive); in [9], > 100 µM (inactive); in assay [10], > 100 µM (inactive); in assay [11], 99.1 µM (inactive); in [12], > 100 µM (inactive). Also, the GI50 in assay [13] is > 100 µM (inactive); in assay [14], > 100 µM (inactive); in assay [15] it was > 100 µM (inactive); in assay [16], 92.9 µM (inactive); in assay [17], 42.7 µM (inactive); in assay [18], > 100 µM (inactive). In [19], the GI50 was > 100 µM (inactive).
Regarding `O=C(O)CCc1nc(-c2ccccc2)c(-c2ccccc2)o1` [OXAPROZIN], the GI50 in assay [1] was > 100 µM (inactive); in assay [2], > 100 µM (inactive); in assay [3], > 100 µM (inactive); in assay [4], > 100 µM (inactive); in assay [5], 74.8 µM (inactive); in assay [7], > 100 µM (inactive). In addition, the GI50 in assay [8], in [9], in assay [10], in assay [11], in assay [12] and in assay [13] was > 100 µM (inactive) throughout. The GI50 in [14], in assay [15], in [16], in [17], in [18] and in assay [19] was > 100 µM (inactive) throughout.
`CC[C@H](C)[C@H]1NC(=O)[C@@H](NC(=O)[C@@H](CC(C)C)N(C)C(=O)C2CCCN2C(=O)[C@H](C)O)[C@@H](C)OC(=O)[C@@H]2Cc3ccccc3CN2C(=O)[C@@H]2CCCN2C(=O)[C@H](CC(C)C)NC(=O)[C@@H](C)C(=O)[C@H](C(C)C)OC(=O)C[C@@H]1O` (some centres not stated): the GI50 is 0.822 µM (active) in assay [1]; 2.62 µM (inactive) in assay [2]; 0.361 µM (active) in [3]; 0.871 µM (active) in assay [4]; 0.399 µM (active) in assay [5]; 0.327 µM (active) in assay [6]. In addition, the GI50 in [7] was 0.175 µM (active); in [8], 0.555 µM (active); in assay [9] it was 0.0586 µM (active); in assay [10], 1.6 µM (inactive); in assay [11], 0.314 µM (active); in assay [20], 0.154 µM (active). For the same compound, the GI50 in [12] is 0.351 µM (active); in assay [13] it was 4.92 µM (inactive); in assay [14], 0.106 µM (active); in assay [15] it was 0.802 µM (active); in [17], 0.106 µM (active); in assay [18], 1.06 µM (active). Besides, the GI50 in [19] was 0.271 µM (active).
Regarding `O=C1/C(=C/c2cccc([N+](=O)[O-])c2)N=C(c2ccccc2)N1c1nc2c(Cl)cc(Cl)cc2s1`, the GI50 in assay [1] was 26.7 µM (inactive); in assay [2], 45.2 µM (inactive); in assay [3], 16.4 µM (inactive); in assay [4], 18.7 µM (inactive); in assay [5] it was 31.2 µM (inactive); in assay [6], 42.6 µM (inactive). Also, the GI50 in assay [7] was 31.1 µM (inactive); in assay [8], 25.5 µM (inactive); in [9], 17.8 µM (inactive); in assay [11], 35.8 µM (inactive); in assay [20], 27.5 µM (inactive); in assay [12], 30.1 µM (inactive). In addition, the GI50 in assay [13] was 40.7 µM (inactive); in assay [14] it was 29.2 µM (inactive); in assay [15], 27.9 µM (inactive); in assay [16], 21.7 µM (inactive); in [17], 10.4 µM (inactive); in assay [18], 33.6 µM (inactive). Moreover, in assay [19], the GI50 is 22.4 µM (inactive).
Take `CN(C)CCNC1=Nc2ccccc2C(=O)N2CSCC12` (configuration not stated): the GI50 in assay [1], in assay [2], in assay [3], in [4], in [5] and in assay [6] was > 100 µM (inactive) each time. The GI50 in [7], in assay [8], in assay [9], in [10], in [11] and in assay [20] was > 100 µM (inactive) throughout. Moreover, the GI50 in [12], in assay [13], in assay [14], in assay [15], in assay [17] and in assay [18] was > 100 µM (inactive) in each case. Moreover, in assay [19], the GI50 was > 100 µM (inactive).
On to `CCNC(=O)c1cc(Cl)ccc1NC(=O)C12CC3CC(CC(C3)C1)C2`, for which the GI50 in assay [1] is 42.3 µM (inactive); in assay [2], 52.8 µM (inactive); in assay [3] it was 42 µM (inactive); in [4], > 100 µM (inactive); in assay [5] it was 24.5 µM (inactive); in [6] it was > 100 µM (inactive). The GI50 in assay [7] was 28.2 µM (inactive); in assay [8], 47.2 µM (inactive); in assay [9] it was 34.5 µM (inactive); in [10], > 100 µM (inactive); in assay [11], > 100 µM (inactive); in [12] it was 30.4 µM (inactive). Further, the GI50 in assay [13] is 30.3 µM (inactive); in assay [15], 19.2 µM (inactive); in assay [16] it was 25.5 µM (inactive); in assay [17], 23.2 µM (inactive); in assay [18], 52.1 µM (inactive); in assay [19], 32.7 µM (inactive).
Turning to `Cc1cc(-c2nc3c(F)cccc3s2)ccc1N`, the GI50 in [3] was 61.4 µM (inactive); in assay [4], 8.2 µM (inactive); in [5], 26.9 µM (inactive); in assay [6], 39.9 µM (inactive); in assay [7], 40.3 µM (inactive); in [8] it was > 100 µM (inactive). For the same compound, the GI50 in [9] is 69.2 µM (inactive); in assay [11], 98.6 µM (inactive); in [12], 82.6 µM (inactive); in [13], 50.4 µM (inactive); in [14], 21 µM (inactive); in assay [15] it was 41.7 µM (inactive). The GI50 in assay [16] is 43.8 µM (inactive); in assay [17], 3.94 µM (inactive); in assay [18], 41.2 µM (inactive); in assay [19], 28.2 µM (inactive).
Take `c1ccc2c(c1)c1c(n2CCOCCN2CCOCC2)CCCC1`: the GI50 is 25.1 µM (inactive) in assay [1]; 18.4 µM (inactive) in [2]; 20.2 µM (inactive) in [3]; 34.1 µM (inactive) in [4]; 21 µM (inactive) in assay [5]; 20.7 µM (inactive) in assay [6]. Further, the GI50 in assay [7] was 33.6 µM (inactive); in [8], 34.1 µM (inactive); in [9], 23.6 µM (inactive); in assay [11], 57 µM (inactive); in assay [20], > 10 µM (inactive); in assay [12], 21.1 µM (inactive). Further, the GI50 in [13] is 15.2 µM (inactive); in assay [16], 20 µM (inactive); in assay [17], 21.8 µM (inactive); in [18], 23.9 µM (inactive); in [19], > 10 µM (inactive).
Regarding `O=C1c2ccccc2C(=O)c2sc(Nc3ccccc3C(F)(F)F)nc21`, the GI50 in assay [1] was 22.4 µM (inactive); in assay [2], 19.7 µM (inactive); in assay [3] it was 25.1 µM (inactive); in assay [4] it was 15.3 µM (inactive); in [5], 13 µM (inactive); in [6], 11 µM (inactive). Also, the GI50 is 3.01 µM (inactive) in [7]; 6.1 µM (inactive) in assay [8]; 10.6 µM (inactive) in assay [9]; 11.9 µM (inactive) in [11]; 15.5 µM (inactive) in assay [20]; 15.6 µM (inactive) in assay [12]. The GI50 is 8.77 µM (inactive) in assay [13]; 11.6 µM (inactive) in [14]; 20.8 µM (inactive) in assay [15]; 3.74 µM (inactive) in assay [16]; 3.79 µM (inactive) in assay [17]; 15.6 µM (inactive) in [18]. Moreover, the GI50 in assay [19] is 32.6 µM (inactive).
As to `Cc1n[nH]c(=O)n1/N=C/c1cccnc1`, the GI50 in assay [1], in assay [2], in assay [3], in [4], in assay [5] and in assay [6] was > 100 µM (inactive) throughout. For the same compound, the GI50 in assay [7], in assay [8], in [9], in assay [10], in assay [11] and in assay [20] was > 100 µM (inactive) throughout. Besides, the GI50 in assay [12], in [13], in assay [14], in assay [16], in assay [17] and in [18] was > 100 µM (inactive) each time. Moreover, the GI50 in assay [19] was > 100 µM (inactive).
In the case of `CCOP(=O)(/C=C/n1cnc2c(=O)n(C(C)=O)c(N)nc21)OCC`, the GI50 in [1], in [2], in [3], in assay [4], in assay [5] and in assay [6] was > 100 µM (inactive) each time. In addition, the GI50 in assay [7] is > 100 µM (inactive); in assay [8] it was > 100 µM (inactive); in assay [9], > 100 µM (inactive); in assay [10] it was 70.3 µM (inactive); in assay [11] it was > 100 µM (inactive); in assay [12], > 100 µM (inactive). For the same compound, the GI50 in [13], in [14], in assay [15], in assay [16], in [17] and in [18] was > 100 µM (inactive) throughout. Further, in assay [19], the GI50 is > 100 µM (inactive).
